Reference: ChEMBL document CHEMBL1687773 (Antimicrob Agents Chemother, 2010)
pIC50, pKi: −log10 of the molar value. Activity calls are given as the source filed them. The calls are words filed in the database; no cut-off is given here.

Legend:
[1] = tested on: Human immunodeficiency virus type 1 reverse transcriptase (Human immunodeficiency virus 1), Q72547 [E138K]; test: Inhibition of HIV1 histidine-tagged reverse transcriptase E138K mutant activity by primer extension assay
[2] = target: Histamine H1 receptor (Homo sapiens) (UniProt P35367); test: Inhibition of human histamine H1 receptor at up to 10 uM
[3] = tested on: Human immunodeficiency virus 1; test: Ratio of EC50 for wild type HIV1 NL4-3 to EC50 for HIV1 NL4-3 harboring reverse transcriptase V108I mutant; assay type: functional
[4] = tested on: Human immunodeficiency virus 1; test: Ratio of EC50 for wild type HIV1 NL4-3 to EC50 for HIV1 NL4-3 harboring reverse transcriptase P236L mutant; assay type: functional
[5] = tested on: Human immunodeficiency virus 1; test: Antiviral activity against HIV1 NL4-3 harboring reverse transcriptase V108I, H221Y, F227F/L, M230M/I mutant infected in human SupT1 cells derived from 11 viral passages with lersivirine assessed as inhibition of viral replication after 21 days relative to drug sensitive HIV1 NL4-3; assay type: functional, SUP-T1
[6] = tested on: Human immunodeficiency virus 1; test: Ratio of EC50 for wild type HIV1 NL4-3 to EC50 for HIV1 NL4-3 harboring reverse transcriptase K103N mutant; assay type: functional
[7] = tested on: Human immunodeficiency virus 1; test: Ratio of EC50 for wild type HIV1 NL4-3 to EC50 for HIV1 NL4-3 harboring reverse transcriptase V106A mutant; assay type: functional
[8] = tested on: Human immunodeficiency virus 1; test: Ratio of EC50 for wild type HIV1 NL4-3 to EC50 for HIV1 NL4-3 harboring reverse transcriptase Y181I mutant; assay type: functional
[9] = target: 5-hydroxytryptamine receptor 1B (Homo sapiens) (UniProt P28222); test: Inhibition of human 5-HT1B receptor at up to 10 uM
Sequence of 5-hydroxytryptamine receptor 1B (Homo sapiens) (P28222 whole entry): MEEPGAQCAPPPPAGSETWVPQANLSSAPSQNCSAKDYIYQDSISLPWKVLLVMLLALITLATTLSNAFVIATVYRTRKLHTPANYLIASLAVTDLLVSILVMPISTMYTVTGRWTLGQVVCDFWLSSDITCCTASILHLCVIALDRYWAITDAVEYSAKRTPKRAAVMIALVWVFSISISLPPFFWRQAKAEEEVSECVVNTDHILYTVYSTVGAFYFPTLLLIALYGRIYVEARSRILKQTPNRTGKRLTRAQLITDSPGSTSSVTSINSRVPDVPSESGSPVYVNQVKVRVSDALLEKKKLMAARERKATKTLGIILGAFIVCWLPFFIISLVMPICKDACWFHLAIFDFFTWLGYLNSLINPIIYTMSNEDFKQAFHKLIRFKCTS

[10] = tested on: Human immunodeficiency virus 1; test: Ratio of EC50 for wild type HIV1 NL4-3 to EC50 for HIV1 NL4-3 harboring reverse transcriptase K101E mutant; assay type: functional
[11] = target: Adenosine receptor A1 (Homo sapiens) (UniProt P30542); test: Inhibition of human adenosine A1 receptor at up to 10 uM
Sequence of Adenosine receptor A1 (Homo sapiens) (P30542 whole entry): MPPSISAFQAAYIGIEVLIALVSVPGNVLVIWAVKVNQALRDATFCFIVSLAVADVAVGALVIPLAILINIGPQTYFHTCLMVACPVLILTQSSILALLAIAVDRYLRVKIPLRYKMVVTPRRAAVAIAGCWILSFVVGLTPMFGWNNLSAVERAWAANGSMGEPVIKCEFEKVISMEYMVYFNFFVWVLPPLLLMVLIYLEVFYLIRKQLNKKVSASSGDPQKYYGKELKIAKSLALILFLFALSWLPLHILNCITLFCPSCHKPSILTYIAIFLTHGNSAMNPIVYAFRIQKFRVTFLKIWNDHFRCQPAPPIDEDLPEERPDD

[12] = tested on: Human immunodeficiency virus type 1 reverse transcriptase (Human immunodeficiency virus 1), Q72547 [V106A]; test: Inhibition of HIV1 histidine-tagged reverse transcriptase V106A mutant activity by primer extension assay
[13] = tested on: Human immunodeficiency virus 1; test: Antiviral activity against HIV1 NL4-3 harboring reverse transcriptase V108I mutant infected in human HeLaP4 cells assessed as inhibition of viral replication after 5 days by beta-galactosidase reporter assay; assay type: functional, organism-based
[14] = tested on: Human immunodeficiency virus type 1 reverse transcriptase (Human immunodeficiency virus 1), Q72547 [P236L]; test: Inhibition of HIV1 histidine-tagged reverse transcriptase P236L mutant activity by primer extension assay
[15] = target: T1, Human immunodeficiency virus type 1 reverse transcriptase (Human immunodeficiency virus 1, UniProt Q72547); test: Inhibition of HIV1 reverse transcriptase activity by primer extension assay
[16] = target: Adrenergic receptor alpha-1 (Homo sapiens) (UniProt P35348+P25100+P35368); test: Inhibition of human adrenergic alpha1 receptor at up to 10 uM
[17] = target: Beta-1 adrenergic receptor (Homo sapiens) (UniProt P08588); test: Inhibition of human adrenergic beta1 receptor at up to 10 uM
Sequence of Beta-1 adrenergic receptor (Homo sapiens) (P08588 whole entry, looked up): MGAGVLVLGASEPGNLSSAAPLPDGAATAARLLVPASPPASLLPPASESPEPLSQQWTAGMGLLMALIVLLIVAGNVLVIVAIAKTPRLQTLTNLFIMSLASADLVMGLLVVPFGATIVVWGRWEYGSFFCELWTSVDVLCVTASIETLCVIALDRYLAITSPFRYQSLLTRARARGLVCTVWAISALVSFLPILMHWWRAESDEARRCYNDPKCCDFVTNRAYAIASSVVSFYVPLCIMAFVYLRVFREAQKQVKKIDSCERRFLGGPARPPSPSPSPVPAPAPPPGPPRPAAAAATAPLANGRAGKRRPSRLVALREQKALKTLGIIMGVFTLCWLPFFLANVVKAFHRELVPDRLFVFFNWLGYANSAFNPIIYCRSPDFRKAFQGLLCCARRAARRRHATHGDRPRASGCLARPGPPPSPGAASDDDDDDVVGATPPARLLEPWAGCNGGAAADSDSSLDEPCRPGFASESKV

[18] = tested on: Human immunodeficiency virus type 1 reverse transcriptase (Human immunodeficiency virus 1), Q72547 [K101E]; test: Inhibition of HIV1 histidine-tagged reverse transcriptase K101E mutant activity by primer extension assay
Homo sapiens [19] = species on record: Homo sapiens; test: Inhibition of human central benzodiazepine receptor at up to 10 uM
HepG2 = test: Inhibition of DNA synthesis in human HepG2 cells assessed as [3H]-thymidine incorporation at up to 10 uM; assay type: functional, cell-based
[20] = target: T1, Human immunodeficiency virus type 1 reverse transcriptase; test: Mixed non-competitive inhibition of HIV1 reverse transcriptase activity
[21] = target: 5-hydroxytryptamine receptor 2A (Homo sapiens) (UniProt P28223); test: Inhibition of human 5-HT2A receptor at up to 10 uM
Sequence of 5-hydroxytryptamine receptor 2A (Homo sapiens) (P28223 whole entry): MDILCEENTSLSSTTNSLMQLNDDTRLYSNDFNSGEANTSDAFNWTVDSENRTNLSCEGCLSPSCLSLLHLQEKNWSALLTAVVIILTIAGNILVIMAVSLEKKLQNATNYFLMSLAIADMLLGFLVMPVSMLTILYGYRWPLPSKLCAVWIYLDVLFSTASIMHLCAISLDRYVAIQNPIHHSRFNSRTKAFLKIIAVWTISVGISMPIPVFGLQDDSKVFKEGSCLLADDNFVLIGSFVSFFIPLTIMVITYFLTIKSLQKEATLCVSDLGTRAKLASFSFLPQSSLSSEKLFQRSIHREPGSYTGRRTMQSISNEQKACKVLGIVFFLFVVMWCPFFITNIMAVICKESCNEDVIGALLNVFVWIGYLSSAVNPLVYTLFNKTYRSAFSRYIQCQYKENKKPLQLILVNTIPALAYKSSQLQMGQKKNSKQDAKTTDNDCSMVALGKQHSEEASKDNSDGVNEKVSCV

[22] = tested on: Human immunodeficiency virus type 1 reverse transcriptase (Human immunodeficiency virus 1), Q72547 [M184V]; test: Inhibition of HIV1 histidine-tagged reverse transcriptase M184V mutant activity by primer extension assay
[23] = tested on: Human immunodeficiency virus 1; test: Antiviral activity against HIV1 NL4-3 harboring reverse transcriptase K101E mutant infected in human HeLaP4 cells assessed as inhibition of viral replication after 5 days by beta-galactosidase reporter assay; assay type: functional, organism-based
[24] = Ratio of CC30 for human PBL cells to EC90 for HIV1
[25] = tested on: Human immunodeficiency virus type 1 reverse transcriptase (Human immunodeficiency virus 1), Q72547 [Y181I]; test: Inhibition of HIV1 histidine-tagged reverse transcriptase Y181I mutant activity by primer extension assay
[26] = target: D(1A) dopamine receptor (Homo sapiens) (UniProt P21728); test: Inhibition of human dopamine D1 receptor at up to 10 uM
Sequence of D(1A) dopamine receptor (Homo sapiens) (P21728 whole entry): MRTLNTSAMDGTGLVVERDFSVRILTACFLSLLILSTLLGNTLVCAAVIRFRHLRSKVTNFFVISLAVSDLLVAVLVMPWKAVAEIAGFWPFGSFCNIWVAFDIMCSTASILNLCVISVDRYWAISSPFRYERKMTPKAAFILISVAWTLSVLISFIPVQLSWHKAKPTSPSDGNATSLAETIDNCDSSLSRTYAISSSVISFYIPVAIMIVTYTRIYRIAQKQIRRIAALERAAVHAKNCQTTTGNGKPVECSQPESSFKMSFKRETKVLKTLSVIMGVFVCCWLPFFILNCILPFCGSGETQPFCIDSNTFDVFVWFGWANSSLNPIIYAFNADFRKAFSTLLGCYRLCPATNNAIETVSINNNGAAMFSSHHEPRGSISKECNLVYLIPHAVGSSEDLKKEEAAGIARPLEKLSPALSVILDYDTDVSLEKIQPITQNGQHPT

[27] = tested on: Human immunodeficiency virus type 1 reverse transcriptase (Human immunodeficiency virus 1), Q72547 [K103N]; test: Binding affinity to HIV1 HXB2 reverse transcriptase K103N mutant by protein X-ray crystallography analysis
[28] = tested on: Human immunodeficiency virus 1; test: Antiviral activity against HIV1 NL4-3 infected in human SupT1 cells derived from 11 viral passages assessed as inhibition of viral replication after 21 days relative to drug sensitive HIV1 NL4-3; assay type: functional, SUP-T1
[29] = target: Amine oxidase [flavin-containing] B (Homo sapiens, UniProt P27338); test: Inhibition of human MAO-B at up to 10 uM
Sequence of Amine oxidase [flavin-containing] B (P27338 whole entry): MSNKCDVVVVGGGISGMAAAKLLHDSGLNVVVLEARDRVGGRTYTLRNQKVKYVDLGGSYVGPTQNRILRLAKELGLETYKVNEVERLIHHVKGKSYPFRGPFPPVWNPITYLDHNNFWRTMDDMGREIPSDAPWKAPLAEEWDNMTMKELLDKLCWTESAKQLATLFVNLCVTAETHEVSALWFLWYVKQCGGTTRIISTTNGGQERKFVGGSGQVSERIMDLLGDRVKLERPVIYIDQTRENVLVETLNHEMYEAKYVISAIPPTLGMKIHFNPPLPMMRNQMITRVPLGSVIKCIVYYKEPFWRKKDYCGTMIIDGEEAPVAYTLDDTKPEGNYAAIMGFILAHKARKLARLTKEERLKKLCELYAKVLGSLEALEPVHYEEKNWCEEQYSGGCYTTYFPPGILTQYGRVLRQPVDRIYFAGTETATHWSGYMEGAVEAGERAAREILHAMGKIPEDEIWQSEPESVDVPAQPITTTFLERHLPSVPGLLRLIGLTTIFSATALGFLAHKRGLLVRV

[30] = target: Amine oxidase [flavin-containing] A (Homo sapiens, UniProt P21397); test: Inhibition of human MAO-A at up to 10 uM
Sequence of Amine oxidase [flavin-containing] A (P21397 whole entry): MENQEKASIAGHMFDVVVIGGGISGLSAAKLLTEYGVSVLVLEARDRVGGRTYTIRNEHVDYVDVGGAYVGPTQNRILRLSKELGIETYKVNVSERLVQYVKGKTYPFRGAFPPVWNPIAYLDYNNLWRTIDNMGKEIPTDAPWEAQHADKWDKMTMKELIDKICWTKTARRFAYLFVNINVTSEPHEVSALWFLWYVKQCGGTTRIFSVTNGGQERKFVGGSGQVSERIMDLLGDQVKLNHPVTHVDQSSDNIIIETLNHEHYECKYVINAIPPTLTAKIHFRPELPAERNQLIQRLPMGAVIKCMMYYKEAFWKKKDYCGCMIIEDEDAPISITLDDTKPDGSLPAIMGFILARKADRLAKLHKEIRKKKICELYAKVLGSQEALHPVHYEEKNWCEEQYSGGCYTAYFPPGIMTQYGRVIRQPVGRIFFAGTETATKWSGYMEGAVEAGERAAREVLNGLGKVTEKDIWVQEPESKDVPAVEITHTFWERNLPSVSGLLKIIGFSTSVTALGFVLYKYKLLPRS

[31] = target: Opioid receptors; mu/kappa/delta (Homo sapiens) (UniProt P41145+P41143+P35372); test: Inhibition of human non-selective opioid receptor at up to 10 uM
Sequence of Opioid receptors; mu/kappa/delta (Homo sapiens) (P35372 whole entry, looked up): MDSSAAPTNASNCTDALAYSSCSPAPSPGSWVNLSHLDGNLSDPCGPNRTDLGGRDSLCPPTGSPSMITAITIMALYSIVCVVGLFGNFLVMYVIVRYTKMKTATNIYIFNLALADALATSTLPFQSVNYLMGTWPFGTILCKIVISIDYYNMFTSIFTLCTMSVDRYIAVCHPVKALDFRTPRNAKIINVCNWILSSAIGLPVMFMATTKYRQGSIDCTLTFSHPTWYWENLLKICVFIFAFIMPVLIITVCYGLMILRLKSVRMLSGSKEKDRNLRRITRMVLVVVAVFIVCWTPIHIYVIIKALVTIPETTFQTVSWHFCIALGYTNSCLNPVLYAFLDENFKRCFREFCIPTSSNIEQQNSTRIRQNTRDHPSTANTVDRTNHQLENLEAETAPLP
Sequence of Opioid receptors; mu/kappa/delta (Homo sapiens) (P41143 whole entry, looked up): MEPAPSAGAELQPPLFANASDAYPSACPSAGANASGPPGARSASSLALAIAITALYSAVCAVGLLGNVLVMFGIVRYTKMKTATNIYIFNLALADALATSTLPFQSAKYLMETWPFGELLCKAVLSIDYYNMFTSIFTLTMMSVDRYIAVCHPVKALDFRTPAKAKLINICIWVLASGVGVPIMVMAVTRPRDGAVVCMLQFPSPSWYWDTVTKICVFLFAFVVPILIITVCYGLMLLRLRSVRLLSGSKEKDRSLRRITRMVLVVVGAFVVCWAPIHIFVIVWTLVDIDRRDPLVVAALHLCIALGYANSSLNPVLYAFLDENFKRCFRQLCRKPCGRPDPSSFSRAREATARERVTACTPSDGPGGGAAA
Sequence of Opioid receptors; mu/kappa/delta (Homo sapiens) (P41145 whole entry, looked up): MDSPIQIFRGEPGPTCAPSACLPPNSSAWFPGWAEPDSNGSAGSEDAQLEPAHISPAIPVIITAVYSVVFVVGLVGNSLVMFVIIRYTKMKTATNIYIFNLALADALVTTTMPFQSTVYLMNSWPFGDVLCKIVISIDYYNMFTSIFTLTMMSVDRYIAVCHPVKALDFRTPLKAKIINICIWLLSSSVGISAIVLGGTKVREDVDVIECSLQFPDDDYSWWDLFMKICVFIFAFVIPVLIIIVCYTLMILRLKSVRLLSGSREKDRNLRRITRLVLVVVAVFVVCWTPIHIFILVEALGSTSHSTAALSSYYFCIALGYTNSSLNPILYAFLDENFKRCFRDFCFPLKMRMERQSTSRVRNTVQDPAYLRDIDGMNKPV

Homo sapiens [32] = species on record: Homo sapiens; test: Inhibition of human L-type calcium channel dihydropyridine binding site at up to 10 uM
[33] = tested on: Human immunodeficiency virus type 1 reverse transcriptase (Human immunodeficiency virus 1), Q72547 [F227L]; test: Inhibition of HIV1 histidine-tagged reverse transcriptase F227L mutant activity by primer extension assay
[34] = tested on: Human immunodeficiency virus 1; test: Antiviral activity against HIV1 NL4-3 harboring reverse transcriptase F227L mutant infected in human HeLaP4 cells assessed as inhibition of viral replication after 5 days by beta-galactosidase reporter assay; assay type: functional, organism-based
[35] = tested on: Human immunodeficiency virus 1; test: Antiviral activity against HIV1 NL4-3 harboring reverse transcriptase V108I, E138K, F227F/L mutant infected in human SupT1 cells derived from 11 viral passages with lersivirine assessed as inhibition of viral replication after 21 days relative to drug sensitive HIV1 NL4-3; assay type: functional, SUP-T1
[36] = tested on: Human immunodeficiency virus 1; test: Ratio of EC50 for wild type HIV1 NL4-3 to EC50 for HIV1 NL4-3 harboring reverse transcriptase Y188C mutant; assay type: functional
[37] = target: Type-1 angiotensin II receptor (Homo sapiens) (UniProt P30556); test: Inhibition of human AT1 receptor at up to 10 uM
Sequence of Type-1 angiotensin II receptor (Homo sapiens) (P30556 whole entry): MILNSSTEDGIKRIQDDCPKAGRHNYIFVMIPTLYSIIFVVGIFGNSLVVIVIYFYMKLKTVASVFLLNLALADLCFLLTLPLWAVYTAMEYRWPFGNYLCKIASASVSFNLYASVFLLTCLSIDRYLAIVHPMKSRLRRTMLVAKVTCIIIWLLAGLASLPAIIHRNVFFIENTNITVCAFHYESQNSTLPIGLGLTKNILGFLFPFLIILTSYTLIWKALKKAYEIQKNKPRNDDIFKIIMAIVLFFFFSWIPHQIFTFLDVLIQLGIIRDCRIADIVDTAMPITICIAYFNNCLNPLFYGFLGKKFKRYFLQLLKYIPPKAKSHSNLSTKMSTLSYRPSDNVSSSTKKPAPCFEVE

[38] = tested on: Human immunodeficiency virus 1; test: Antiviral activity against HIV1 NL4-3 harboring reverse transcriptase E138K mutant infected in human HeLaP4 cells assessed as inhibition of viral replication after 5 days by beta-galactosidase reporter assay; assay type: functional, organism-based

Question: With `CCc1nn(CCO)c(CC)c1Oc1cc(C#N)cc(C#N)c1` [LERSIVIRINE] as the compound, how does the inhibition [1] read?
Answer: The inhibition was “Active”.

Question: What about the inhibition [2] of the same compound?
Answer: The inhibition was “inactive”.

Question: What about the “Ratio EC50” value [3] of the same compound?
Answer: The value was 10.

Question: What about the “Ratio EC50” value [4] of the same compound?
Answer: The value was 10.

Question: And the “fold change (FC)” value [5]?
Answer: The value was 60.5.

Question: And the “Ratio EC50” value [6]?
Answer: Its value is 10.

Question: And the “Ratio EC50” value [7]?
Answer: Its value is 10.

Question: What about the “Ratio EC50” value [8] of the same compound?
Answer: Its value is 10.

Question: What about the inhibition [9] of the same compound?
Answer: Its inhibition is “inactive”.

Question: What about the “Ratio EC50” value [10] of the same compound?
Answer: The value was 10.

Question: And the inhibition [11]?
Answer: Its inhibition is “inactive”.

Question: What about the inhibition [12] of the same compound?
Answer: Its inhibition is “Active”.

Question: And the inhibition [13]?
Answer: The inhibition was “Active”.

Question: What about the inhibition [14] of the same compound?
Answer: The inhibition was “Active”.

Question: And the pIC50 [15]?
Answer: The pIC50 was 6.93.

Question: What about the inhibition [16] of the same compound?
Answer: Its inhibition is “inactive”.

Question: And the inhibition [17]?
Answer: The inhibition was “inactive”.

Question: And the inhibition [18]?
Answer: Its inhibition is “Active”.

Question: What about the inhibition (Homo sapiens [19]) of the same compound?
Answer: The inhibition was “inactive”.

Question: What about the inhibition (HepG2) of the same compound?
Answer: The inhibition was “inactive”.

Question: And the pKi [20]?
Answer: The pKi was 6.93.

Question: And the inhibition [21]?
Answer: The inhibition was “inactive”.

Question: What about the inhibition [22] of the same compound?
Answer: Its inhibition is “Active”.

Question: And the inhibition [23]?
Answer: The inhibition was “Active”.

Question: And the Ratio [24]?
Answer: Its Ratio is 9818.

Question: What about the inhibition [25] of the same compound?
Answer: The inhibition was “Active”.

Question: And the inhibition [26]?
Answer: The inhibition was “inactive”.

Question: What about the Activity [27] of the same compound?
Answer: The Activity was “Active”.

Question: And the “fold change (FC)” value [28]?
Answer: The value was 0.6.

Question: And the “inhibition (INH)” value [29]?
Answer: Its value is “Not Active”.

Question: What about the “inhibition (INH)” value [30] of the same compound?
Answer: The value was “Not Active”.

Question: What about the inhibition [31] of the same compound?
Answer: Its inhibition is “inactive”.

Question: What about the inhibition (Homo sapiens [32]) of the same compound?
Answer: Its inhibition is “inactive”.

Question: And the inhibition [33]?
Answer: The inhibition was “Active”.

Question: And the inhibition [34]?
Answer: The inhibition was “Active”.

Question: What about the “fold change (FC)” value [35] of the same compound?
Answer: Its value is 143.

Question: And the “Ratio EC50” value [36]?
Answer: Its value is 10.

Question: And the inhibition [37]?
Answer: Its inhibition is “inactive”.

Question: And the inhibition [38]?
Answer: Its inhibition is “Active”.
